Assay in all cases: selective drug sensitivity score (sDSS, relative to normal bone marrow) (sDSS (score)); higher = more potent and effective on the cell line relative to normal bone marrow cells
Settings in all cases: 72 h

Assay [1] deals with NALM-16.
The test system of assay [2] is MOLT-14.
For assay [3], the system named is COG-LL-332h.
In assay [4] the test system is MHH-CALL-3.
In assay [5] the test system is MHH-CALL-2.
In assay [6] the test system is HAL-01.
In assay [7] the test system is 380.
Assay [8] concerns MN-60.
The subject of assay [9] is ALL-SIL.
In assay [10] the test system is P12-ICHIKAWA
Assay [11] concerns JURKAT.
Assay [12] concerns REH.
Assay [13] has as its system HPB-ALL.
Assay [14] relates to COG-LL-394h.
Assay [15] deals with P30-OHKUBO.
In assay [16] the test system is COG-LL-402h.
Assay [17] relates to COG-LL-317.
In assay [18] the test system is RPMI-8402.
The subject of assay [19] is KARPAS-45.
Assay [20] concerns PF-382.

The values below come from the supplement of paper PMC8967900.
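Further: ALL cell lines in 384-well plates, five doses spanning 10,000-fold, each plate scaled between vehicle and 100 µmol/L benzalkonium chloride controls, sDSS an adapted area-under-curve metric.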

In the case of `C[C@@H]1C[C@H]2[C@@H]3CCC4=CC(=O)C=C[C@]4(C)[C@@]3(F)[C@@H](O)C[C@]2(C)[C@@]1(O)C(=O)CO` [Dexamethasone] (top concentration 10000 nM), the “selective drug sensitivity score” value in assay [1] is -1.52; in assay [2], -1.52; in assay [3], 1.88; in assay [4], 40.3; in [5], 28.9; in assay [6] it was -1.42. The “selective drug sensitivity score” value in [7] was 32.2; in assay [8] it was -0.52; in [9], 18.6; in assay [10], 28; in assay [11] it was -1.52; in assay [12], -1.52. Further, the “selective drug sensitivity score” value in assay [13] was 3.18; in assay [14], -1.52; in assay [15] it was 28.6; in assay [16], 29.3; in assay [17], 11.3; in assay [18] it was 3.18. Also, the figures for the “selective drug sensitivity score” value in assay [19] and in assay [20] were 24.4 and 1.48, respectively.

For `COc1cc(NS(C)(=O)=O)ccc1Nc1c2ccccc2nc2ccccc12` [Amsacrine] (top concentration 10000 nM), the “selective drug sensitivity score” value in assay [1] is 0.66; in assay [2], 18.8; in [3], 20.1; in assay [4], 23.5; in assay [5], 10.5; in [6], 14.1. For the same molecule, the “selective drug sensitivity score” value in assay [7] was 23.2; in assay [8], -1.84; in [9], 10.2; in [10] it was 13.5; in assay [11], 7.96; in assay [12] it was 19.1. The “selective drug sensitivity score” value was 2.56 in [13]; 8.26 in assay [14]; 13 in assay [15]; 16.8 in [16]; 25.8 in assay [17]; 14.4 in assay [18]. The “selective drug sensitivity score” value in [19] was 1.76; in assay [20], 10.9.

For `CCN(CC)CCN(Cc1ccc(-c2ccc(C(F)(F)F)cc2)cc1)C(=O)Cn1c(SCc2ccc(F)cc2)nc(=O)c2c1CCC2` [Darapladib] (top concentration 1000 nM), the “selective drug sensitivity score” value in assay [1] is -0.52; in [2] it was -1.42; in assay [3], -0.92; in assay [4], -1.42; in assay [5], 3.68; in assay [6], 0.58. Further, the “selective drug sensitivity score” value in assay [7], in assay [8], in assay [9], in [10], in assay [11] and in [12] was -1.42 each time. Besides, the “selective drug sensitivity score” value in [13] was -1.42; in assay [14] it was -1.42; in assay [15], 0.68; in assay [16], -1.42; in assay [17], -1.42; in [18], -1.32. Also, the “selective drug sensitivity score” value is -1.32 in assay [19] and -1.22 in assay [20].

As for `CC(C)(C)C[C@@H]1N[C@@H](C(=O)N[C@H]2CC[C@H](O)CC2)[C@H](c2cccc(Cl)c2F)[C@]12C(=O)Nc1cc(Cl)ccc12` (top concentration 10000 nM), the “selective drug sensitivity score” value was -3.54 in assay [1]; 9.56 in [2]; 8.66 in assay [3]; 16.9 in assay [4]; 13.2 in assay [5]; 12.2 in [6]. The “selective drug sensitivity score” value in [7] was 14.3; in [8], -0.74; in [9] it was -3.34; in [10], -5.24; in [11], -4.74; in [12], 3.56. In addition, the “selective drug sensitivity score” value in assay [13] is -3.44; in [14], 6.46; in [15], 12.4; in assay [16], 13.4; in assay [17] it was 19.9; in [18], -3.34. For the same molecule, the “selective drug sensitivity score” value was -2.64 in assay [19] and -3.94 in assay [20].

In the case of `COc1cc(C)[nH]c(=O)c1CNC(=O)c1c(C)n([C@H](C)C2CCOCC2)c2ccccc12` [CPI-360] (top concentration 10000 nM), the “selective drug sensitivity score” value in [1] amounted to 0; in [2], 0; in [3] it was 0; in assay [4], 0; in assay [5], 1.1; in assay [6] it was 1.3. The “selective drug sensitivity score” value was determined as 5.1 in assay [7]; 0 in [8]; 0 in assay [9]; 0 in assay [10]; 0.1 in [11]; 0 in assay [12]. In addition, the “selective drug sensitivity score” value was determined as 0 in [13]; 0 in assay [14]; 1.8 in assay [15]; 0 in assay [16]; 0 in [17]; 0 in assay [18]. Besides, the “selective drug sensitivity score” value in [19] and in assay [20] was 0 each time.

Consider `CCN(CC)CCCC(C)Nc1ccnc2cc(Cl)ccc12` (stereo not given) [Chloroquine] (top concentration 100000 nM), for which the “selective drug sensitivity score” value is -5.24 in [1]; -2.84 in assay [2]; -0.64 in [3]; -6.04 in [4]; 1.06 in assay [5]; 0.36 in assay [6]. Further, the “selective drug sensitivity score” value in [7] was -4.94; in assay [8], -2.74; in assay [9], -0.74; in assay [10] it was -3.94; in assay [11], -5.04; in assay [12] it was 0.96. Besides, the “selective drug sensitivity score” value was -6.64 in assay [13]; -4.54 in assay [14]; 0.26 in [15]; -3.94 in [16]; 0.36 in assay [17]; -1.74 in assay [18]. Moreover, the figures for the “selective drug sensitivity score” value in [19] and in [20] were 1.26 and -2.34, respectively.

`COC(=O)c1ccc([C@H]2c3[nH]c4ccccc4c3C[C@H](C(=O)OC)N2C(=O)CCl)cc1` [RSL3] (top concentration 10000 nM): the “selective drug sensitivity score” value in assay [1] stood at 0; in assay [2], 0; in assay [3], 0; in assay [4], 0.7; in [5], 0.1; in assay [6] it was 3.5. Also, the “selective drug sensitivity score” value worked out at 14.2 in assay [7]; 0 in assay [8]; 0 in [9]; 0 in assay [10]; 0 in [11]; 3.1 in [12]. In addition, the “selective drug sensitivity score” value is 0.4 in [13]; 0 in assay [14]; 2.7 in [15]; 0 in [16]; 0.3 in [17]; 1.2 in assay [18]. The “selective drug sensitivity score” value turned out to be 0 in assay [19] and 0.9 in [20].
